The target in data set [1] is T1, Amine oxidase [flavin-containing] B (Homo sapiens, UniProt P27338).
T1 sequence (P27338 whole entry): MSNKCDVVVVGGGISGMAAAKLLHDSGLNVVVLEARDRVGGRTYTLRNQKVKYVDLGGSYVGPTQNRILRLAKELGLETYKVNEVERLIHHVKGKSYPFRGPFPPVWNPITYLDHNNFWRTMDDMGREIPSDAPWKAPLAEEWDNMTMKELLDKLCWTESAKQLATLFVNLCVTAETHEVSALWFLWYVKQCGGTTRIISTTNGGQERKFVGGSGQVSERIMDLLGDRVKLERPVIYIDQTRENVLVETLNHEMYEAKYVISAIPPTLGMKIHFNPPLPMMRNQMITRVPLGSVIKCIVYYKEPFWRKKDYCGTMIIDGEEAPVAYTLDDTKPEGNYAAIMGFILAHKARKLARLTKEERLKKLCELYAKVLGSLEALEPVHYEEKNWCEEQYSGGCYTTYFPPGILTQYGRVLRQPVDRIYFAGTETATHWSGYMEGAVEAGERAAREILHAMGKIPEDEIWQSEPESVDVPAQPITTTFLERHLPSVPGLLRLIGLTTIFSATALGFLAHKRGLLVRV
Kind of data set: Inhibition of recombinant human MAO-B expressed in insect cells using kynuramine as substrate assessed as formation of 4-hydroxyquinoline measured every 5 mins for 30 mins. The class given is cell-based.

Data set [2] addresses T2, Amine oxidase [flavin-containing] A (Homo sapiens, UniProt P21397).
T2 sequence (P21397 whole entry): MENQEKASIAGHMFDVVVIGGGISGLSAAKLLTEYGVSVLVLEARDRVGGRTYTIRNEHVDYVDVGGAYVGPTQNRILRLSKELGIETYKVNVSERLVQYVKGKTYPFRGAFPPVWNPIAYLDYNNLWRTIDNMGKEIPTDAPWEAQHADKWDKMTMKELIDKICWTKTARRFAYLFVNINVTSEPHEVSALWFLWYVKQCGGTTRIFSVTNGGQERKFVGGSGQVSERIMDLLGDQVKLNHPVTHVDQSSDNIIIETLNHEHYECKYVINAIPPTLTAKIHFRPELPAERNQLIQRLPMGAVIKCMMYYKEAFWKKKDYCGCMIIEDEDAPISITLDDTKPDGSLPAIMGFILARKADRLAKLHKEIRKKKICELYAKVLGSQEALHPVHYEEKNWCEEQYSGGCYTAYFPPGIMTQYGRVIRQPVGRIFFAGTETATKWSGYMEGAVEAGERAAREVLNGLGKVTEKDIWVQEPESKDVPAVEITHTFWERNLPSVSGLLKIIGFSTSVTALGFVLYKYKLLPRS
The data set is described as follows: Inhibition of recombinant human MAO-A expressed in insect cells using kynuramine as substrate assessed as formation of 4-hydroxyquinoline measured every 5 mins for 30 mins.

Another data set is filed under the species Homo sapiens. The data set is described as follows: Selectivity ratio of IC50 for recombinant human MAO-B to IC50 for recombinant human MAO-A. Particulars: tested as the 2H-labelled form.
Data set [3] deals with Thalamus. The data set is described as follows: Drug uptake in cynomolgus monkey thalamus at 168 to 174 MBq, iv after 60 mins by PET analysis. The class given is ADME, organism-based, Macaca fascicularis. Particulars: in vivo, 1 h.
Data set [4] in a line: Drug uptake in cynomolgus monkey cortex at 168 to 174 MBq, iv after 60 mins by PET analysis in presence of L-deprenyl. The class given is ADME, organism-based, Macaca fascicularis. The conditions noted are these: in vivo, 1 h.
The nature of data set [5]: Stability in cynomolgus monkey plasma assessed as unchanged parent compound at 168 to 174 MBq, iv after 120 mins by RP-HPLC analysis. The class given is ADME, organism-based, Macaca fascicularis. The conditions noted are these: read-out: Stability.
The nature of data set [6]: Drug uptake in cynomolgus monkey striatum at 168 to 174 MBq, iv after 60 mins by PET analysis. The class given is ADME, organism-based, Macaca fascicularis. The conditions noted are these: in vivo, 1 h.
A short description of data set [7]: Drug recovery in cynomolgus monkey plasma at 168 to 174 MBq, iv by RP-HPLC analysis in presence of acetonitrile. The class given is ADME, organism-based, Macaca fascicularis. Particulars: read-out: Drug recovery.
Data set [8] is described as follows: Stability in cynomolgus monkey plasma assessed as unchanged parent compound at 168 to 174 MBq, iv after 45 mins by RP-HPLC analysis. The class given is ADME, organism-based, Macaca fascicularis. The conditions noted are these: read-out: Stability.
Data set [9] in a line: Stability in cynomolgus monkey plasma assessed as unchanged parent compound at 168 to 174 MBq, iv after 15 mins by RP-HPLC analysis. The class given is ADME, organism-based, Macaca fascicularis. The conditions noted are these: read-out: Stability.
Data set [10] in a line: Chemical stability of the compound in PBS at pH 7.4 after 180 mins. The class given is physicochemical. The conditions noted are these: read-out: Stability.
Data set [11] in a line: Drug uptake in cynomolgus monkey striatum at 168 to 174 MBq, iv after 60 mins by PET analysis in presence of L-deprenyl. The class given is ADME, organism-based, Macaca fascicularis. Particulars: in vivo, 1 h.
A short description of data set [12]: Drug uptake in cynomolgus monkey cerebellum at 168 to 174 MBq, iv after 60 mins by PET analysis in presence of L-deprenyl. Particulars: in vivo, 1 h. The class given is ADME, organism-based, Macaca fascicularis.
Data set [13] relates to Cynomolgus monkey. The data set is described as follows: Drug metabolism in cynomolgus monkey plasma assessed as radiometabolite M1 retention time at 168 to 174 MBq, iv RP-HPLC analysis. The class given is ADME, organism-based, Macaca fascicularis.
The nature of data set [14]: Drug uptake in cynomolgus monkey cerebellum at 168 to 174 MBq, iv after 60 mins by PET analysis. The conditions noted are these: in vivo, 1 h. The class given is ADME, organism-based, Macaca fascicularis.
For data set [15], the system named is Thalamus. The data set is described as follows: Drug uptake in cynomolgus monkey thalamus at 168 to 174 MBq, iv after 60 mins by PET analysis in presence of L-deprenyl. The class given is ADME, organism-based, Macaca fascicularis. The conditions noted are these: in vivo, 1 h.
Data set [16] in a line: Drug uptake in cynomolgus monkey cortex at 168 to 174 MBq, iv after 60 mins by PET analysis. The class given is ADME, organism-based, Macaca fascicularis. Particulars: in vivo, 1 h.
Data set [17] relates to Cynomolgus monkey. The data set is described as follows: Drug metabolism in cynomolgus monkey plasma assessed as radiometabolite M2 retention time at 168 to 174 MBq, iv by RP-HPLC analysis. The class given is ADME, organism-based, Macaca fascicularis.
The subject of a further data set is Brain. Kind of data set: Drug uptake in cynomolgus monkey brain at 168 to 174 MBq, iv after 4 mins by PET analysis. The class given is ADME, organism-based, Macaca fascicularis. The conditions noted are these: in vivo.

In general, IC50 refers to the concentration that gives 50% inhibition.

As to `[2H]C([2H])(C#C)N[C@@H]1c2ccccc2C[C@H]1F`, the IC50 in [1] was found to be 173 nM; in [2], 9900 nM.
On to `C#CCN[C@@H]1c2ccccc2C[C@H]1F`, for which the Ratio IC50 in the data set filed under Homo sapiens was 19.
Take `C#CCN[C@H]1c2ccccc2C[C@@H]1F` [FLUORORASAGILINE]: the IC50 in data set [1] is 27 nM.
Take `[2H]C([2H])(C#C)N[C@@H]1c2ccccc2C[C@H]1[18F]` [[18F]FLUORORASAGILINE-D2]: the SUV in the data set with Thalamus [3] turned out to be 1.46%; in data set [4] it was 0.66%; in [6], 1.38%; in [11] it was 0.77%; in data set [12], 0.54%; in [14], 0.99%. Besides, the results for the SUV (in the data set on Thalamus [15]; in data set [16]; with Brain) were 0.78%, 1.1% and 270%, respectively. Further, the remaining at 2 h in data set [5] worked out at 20%. In [7], the recovery is more than 95%. The remaining at 0.75 h in [8] came out at 50%. In addition, the remaining at 0.25 h in data set [9] was found to be 75%. Further, the remaining at 3 h in data set [10] is more than 97%. Besides, the Retention_time with Cynomolgus monkey [13] came to 2.9 min; in the data set with Cynomolgus monkey [17] it was 6.7 min.
For the compound `C#CCN[C@H]1c2ccccc2C[C@@H]1[18F]` [[18F]FLUORORASAGILINE], the remaining at 2 h in [5] was 35%. Further, in [8], the remaining at 0.75 h stood at 55%.

Source of the values: ChEMBL document CHEMBL2440022, “Development of a novel fluorine-18 labeled deuterated fluororasagiline ([(18)F]fluororasagiline-D2) radioligand for PET studies of monoamino oxidase B (MAO-B)” (Bioorg Med Chem, 2013).
